Patent US5998521A, “Aqueous fluoropolymer compositions and method of preparing the same” (3M Innovative Properties Company, priority 1996, dated 1999)

What was measured:
[1] = Surface tension and critical micelle concentration of aqueous surfactant solutions; format: physicochemical; conditions: deionized water; for Surf. Tens.: at the CMC
Description: Critical Micelle Concentration (CMC): The critical micelle concentration is defined as the concentration at which further surface tension is no longer lowered with increasing levels of surfactant. To determine CMC, surface tension is measured as a function of surfactant concentration using a K-12 Processor Tensiometer in conjunction with a 665 Dosimat automatic surfactant injection device (also commercially available from Kruss GmbH). Surface tension is then plotted vs. log concentration and the data points are connected. The resulting curve has a nearly horizontal flat portion at concentrations above the CMC and has a negative steep slope at concentrations below the CMC. The CMC is defined as the lowest surfactant concentration in the horizontal flat portion of the curve.
(§1) Then the critical micelle concentration (CMC) was determined for each surfactant.
as §1

[2] = Thermogravimetric analysis of neat perfluorocarboxylate salts; format: physicochemical; conditions: neat salt, nitrogen, 10° C./min
Description: Thermal degradation measurements were made on a series of neat perfluorocarboxylate salts, including several α-branched open chain structures (Examples N2-N9), a primarily linear open chain structure (Example N10-Fluorad™ FC-143 Fluorochemical Surfactant, commercially available from 3M Company, St. Paul, Minn.), and a closed chain (i.e., cyclic) structure (Example N11--made by the electrochemical fluorination of benzoic acid and hydrolysis in the presence of KOH, as described in U.S. Pat. No. 2,567,011 (Diesslin et al.)).
The perfluorocarboxylate salts were tested using a Perkin-Elmer TGA 7 thermogravimetric analysis apparatus and a salt sample size of approximately 5 mg, a heating rate of 10° C./min, and a nitrogen gas flow rate of 40-45 mL/min. Using the TGA 7 software, the following temperatures were recorded: (1) the onset temperature of decomposition, (2) the temperature at which 50% of the sample weight was lost, and (3) the temperature at which 90% of the sample weight was lost.

Row | Compound | Surf. Tens. ([1]; Table 3) [dynes/cm] | CMC ([1]; Table 3) [ppm] | Surf. Tens. ([1]; Table 5) [dynes/cm] | CMC ([1]; Table 5) [ppm] | other results
1 | O=C([O-])CC[N+]1(CCCNC(=O)C(F)(C(F)(F)F)C(F)(F)C(F)(F)C(F)(F)C(F)(F)C(F)(F)C(F)(F)C(F)(F)F)CCOCC1 (centres unmarked) [Example K3] | 19.2 | – | – | – | –
2 | O=C(OCCc1cccc[n+]1[O-])C(F)(C(F)(F)F)C(F)(F)C(F)(F)C(F)(F)C(F)(F)C(F)(F)C(F)(F)F (centres unmarked) [Example E12] | 18.3 | 8000 | – | – | –
3 | C[N+](C)(CCCNC(=O)C(F)(C(F)(F)F)C(F)(F)C(F)(F)C(F)(F)C(F)(F)C(F)(F)C(F)(F)C(F)(F)F)CCC(=O)[O-] (centres unmarked) [Example K1, C7 F15 CF(CF3)CONH(CH2)3 N^+ (CH3)2C2 H4 COO^-] | 16.6 | 125 | – | – | –
4 | C[n+]1ccc(C(=O)NCCOC(=O)C(F)(C(F)(F)F)C(F)(F)C(F)(F)C(F)(F)C(F)(F)C(F)(F)C(F)(F)C(F)(F)F)cc1 (centres unmarked) [Example F1] | 15.0 | 500 | – | – | –
5 | C[N+](C)([O-])CCCN(CCO)C(=O)C(F)(C(F)(F)F)C(F)(F)C(F)(F)C(F)(F)C(F)(F)C(F)(F)C(F)(F)C(F)(F)F (centres unmarked) [Example E8, C7 F15 CF(CF3)CON(C2 H4 OH)(CH2)3 N^+ (CH3)2 O^-] | 16.6 | 125 | – | – | –
6 | O=C(O)C(F)(C(F)(F)F)C(F)(F)C(F)(F)C(F)(F)C(F)(F)C(F)(F)C(F)(F)C(F)(F)C(F)(F)F (centres unmarked) [Example M17, C8 F17 CF(CF3)COO^- H4 N^+] | – | – | 14.7 | 2300 | Temperature for: 50% loss [2]: 162 °C; Temperature for: 90% loss [2]: 184 °C; Temperature for: Onset [2]: 142 °C
7 | C8 F17 CF(CF3)CO(OCH2 CH2)16 OCH3 [Example J1] | 22 | 150 | – | – | –
8 | C[N+](C)(CCO)CCCNC(=O)C(F)(C(F)(F)F)C(F)(F)C(F)(F)C(F)(F)C(F)(F)C(F)(F)C(F)(F)C(F)(F)F (centres unmarked) [Example F4] | 19.0 | 300 | – | – | –
9 | C[N+](C)([O-])CCCNC(=O)C(F)(C(F)(F)F)C(F)(F)C(F)(F)C(F)(F)C(F)(F)C(F)(F)C(F)(F)C(F)(F)C(F)(F)C(F)(F)C(F)(F)F (centres unmarked) [Example E5, C10 F21 CF(CF3)CONH(CH2)3 N^+ (CH3)2 O^-] | 17.1 | 500 | – | – | –
10 | O=C(O)C(F)(C(F)(F)F)C(F)(F)C(F)(F)C(F)(F)C(F)(F)C(F)(F)C(F)(F)C(F)(F)C(F)(F)C(F)(F)C(F)(F)F (centres unmarked) [Example M18, C10 F21 CF(CF3)COO^- H4 N^+] | – | – | 14.8 | 600 | Temperature for: 50% loss [2]: 181 °C; Temperature for: 90% loss [2]: 188 °C; Temperature for: Onset [2]: 164 °C
11 | O=C(O)C(F)(C(F)(F)F)C(F)(F)C(F)(F)C(F)(F)C(F)(F)C(F)(F)C(F)(F)C(F)(F)F (centres unmarked) [Example M30, C7 F15 CF(CF3)COO^- 1/2[H3 N^+ C2 H4 NHC2 H4 N^+ H3]] | – | – | 16.2 | 3000 | –
12 | C[N+](C)([O-])CCCNC(=O)C(F)(C(F)(F)F)C(F)(F)C(F)(F)C(F)(F)C(F)(F)C(F)(F)C(F)(F)C(F)(F)C(F)(F)F (centres unmarked) [Example E4, C8 F17 CF(CF3)CONH(CH2)3 N^+ (CH3)2 O^-] | 16.5 | 20 | – | – | –
13 | O=C(NCCC[N+]1(CCO)CCOCC1)C(F)(C(F)(F)F)C(F)(F)C(F)(F)C(F)(F)C(F)(F)C(F)(F)C(F)(F)C(F)(F)F (centres unmarked) [Example F5] | 20.8 | – | – | – | –
14 | O=C(O)C(F)(C(F)(F)F)C(F)(F)C(F)(F)C(F)(F)C(F)(F)C(F)(F)F (centres unmarked) [Example M21, C5 F11 CF(CF3)COO^- K^+] | – | – | 22.5 | > 10000 | Temperature for: 50% loss ([2]; listed as N9): 178 °C; Temperature for: 90% loss ([2]; listed as N9): 188 °C; Temperature for: Onset ([2]; listed as N9): 167 °C
15 | O=C(O)C(F)(C(F)(F)C(F)(F)F)C(F)(F)C(F)(F)C(F)(F)C(F)(F)C(F)(F)C(F)(F)F (centres unmarked) [Example M19, C6 F13 CF(C2 F5)COO^- H4 N^+] | – | – | – | – | Temperature for: 50% loss [2]: 171 °C; Temperature for: 90% loss [2]: 188 °C; Temperature for: Onset [2]: 153 °C
16 | O=C(O)C(F)(C(F)(F)F)C(F)(F)C(F)(F)C(F)(F)C(F)(F)C(F)(F)C(F)(F)F (centres unmarked) [Example M22, C6 F13 CF(CF3)COO^- K^+] | – | – | 17.5 | 10000 | –
17 | O=C(O)C(F)(C(F)(F)F)C(F)(F)C(F)(F)C(F)(F)C(F)(F)C(F)(F)C(F)(F)C(F)(F)F (centres unmarked) [Example M27, C7 F15 CF(CF3)COO^- Li^+] | – | – | 24.1 | 3500 | –
18 | C[N+](C)([O-])CCCNC(=O)C(F)(C(F)(F)F)C(F)(F)C(F)(F)C(F)(F)C(F)(F)C(F)(F)F (centres unmarked) [Example E2, C5 F11 CF(CF3)CONH(CH2)3 N^+ (CH3)2 O^-] | 17.5 | 500 | – | – | –

Row | Compound | Surf. Tens. ([1]; Table 3) [dynes/cm] | CMC ([1]; Table 3) [ppm] | Surf. Tens. ([1]; Table 5) [dynes/cm] | CMC ([1]; Table 5) [ppm] | other results
19 | O=C(O)C(F)(C(F)(F)F)C(F)(F)C(F)(F)C(F)(F)C(F)(F)C(F)(F)C(F)(F)C(F)(F)F (centres unmarked) [Example M20, C7 F15 CF(CF3)COO^- H3 N^+ C2 H4 OH] | – | – | 15.0 | 500 | –
20 | O=C(NCCOC(=O)C(F)(C(F)(F)F)C(F)(F)C(F)(F)C(F)(F)C(F)(F)C(F)(F)C(F)(F)F)c1cc[n+]([O-])cc1 (centres unmarked) [Example E11] | 15.5 | 1000 | – | – | –
21 | O=C(O)C(F)(C(F)(F)F)C(F)(F)C(F)(F)C(F)(F)C(F)(F)C(F)(F)C(F)(F)C(F)(F)F (centres unmarked) [Example M26, C7 F15 CF(CF3)COO^- Na^+] | – | – | 19.4 | 3000 | –
22 | O=C(OCCc1cccc[n+]1[O-])C(F)(C(F)(F)F)C(F)(F)C(F)(F)C(F)(F)C(F)(F)C(F)(F)C(F)(F)C(F)(F)F (centres unmarked) [Example E13] | 15.0 | 6000 | – | – | –
23 | O=C(O)C(F)(C(F)(F)F)C(F)(F)C(F)(F)C(F)(F)C(F)(F)C(F)(F)F (centres unmarked) [Example M28, C5 F11 CF(CF3)COO^- Na^+] | – | – | – | – | Temperature for: 50% loss ([2]; listed as N8): 250 °C; Temperature for: 90% loss ([2]; listed as N8): 263 °C; Temperature for: Onset ([2]; listed as N8): 236 °C
24 | O=C(O)C(F)(C(F)(F)F)C(F)(F)C(F)(F)C(F)(F)C(F)(F)C(F)(F)C(F)(F)F (centres unmarked) [Example M25, C6 F13 CF(CF3)COO^- Na^+] | – | – | 19.8 | 10000 | –
25 | O=C(O)C(F)(C(F)(F)F)C(F)(F)C(F)(F)C(F)(F)C(F)(F)C(F)(F)C(F)(F)C(F)(F)F (centres unmarked) [Example M23, C7 F15 CF(CF3)COO^- K^+] | – | – | 15.0 | 2500 | –
26 | O=C(NCCOC(=O)C(F)(C(F)(F)F)C(F)(F)C(F)(F)C(F)(F)C(F)(F)C(F)(F)C(F)(F)C(F)(F)F)c1cc[n+]([O-])cc1 (centres unmarked) [Example E10] | 14.5 | 400 | – | – | –
27 | C[N+](C)(CCCN(CCC[N+](C)(C)CCC(=O)[O-])C(=O)C(F)(C(F)(F)F)C(F)(F)C(F)(F)C(F)(F)C(F)(F)C(F)(F)C(F)(F)C(F)(F)F)CCC(=O)[O-] (centres unmarked) [Example K4] | 23.6 | 100 | – | – | –
28 | O=C(O)C1(F)C(F)(F)C(F)(F)C(F)(F)C(F)(F)C1(F)F [U.S. Pat. No. 2,567,011, reference compound] | – | – | – | – | Temperature for: 50% loss [2]: 110 °C; Temperature for: 90% loss [2]: 120 °C; Temperature for: Onset [2]: 100 °C
29 | C[N+](C)([O-])CCCNC(=O)C(F)(C(F)(F)F)C(F)(F)C(F)(F)C(F)(F)C(F)(F)C(F)(F)C(F)(F)F (centres unmarked) [Example E3, C6 F13 CF(CF3)CONH(CH2)3 N^+ (CH3)2 O^-] | 16.6 | 100 | – | – | –
30 | C[n+]1ccc(C(=O)NCCOC(=O)C(F)(C(F)(F)F)C(F)(F)C(F)(F)C(F)(F)C(F)(F)C(F)(F)C(F)(F)F)cc1 (centres unmarked) [Example F2] | 15.5 | 30 | – | – | –
31 | C[N+](C)(CCO)CCCNC(=O)C(F)(C(F)(F)F)C(F)(F)C(F)(F)C(F)(F)C(F)(F)C(F)(F)F (centres unmarked) [Example F3] | 17.0 | 1000 | – | – | –
32 | C[N+](C)([O-])CCCNC(=O)C(F)(C(F)(F)F)C(F)(F)C(F)(F)C(F)(F)C(F)(F)C(F)(F)C(F)(F)C(F)(F)F (centres unmarked) [Example E1, C7 F15 CF(CF3)CONH(CH2)3 N^+ (CH3)2 O^-] | 16.3 | 20 | – | – | –
33 | O=C(O)C(F)(C(F)(F)F)C(F)(F)C(F)(F)C(F)(F)C(F)(F)C(F)(F)C(F)(F)C(F)(F)C(F)(F)F (centres unmarked) [Example M24, C8 F17 CF(CF3)COO^- K^+] | – | – | 16.4 | 3000 | –
34 | C6 F13 CF(CF3)CON(C3 H6 SO3^-)(CH2)3 N^+ (CH3)2 H [Example K2] | 20.3 | 500 | – | – | –
35 | CN(C)CCCN(CCCN(C)C)C(=O)C(F)(C(F)(F)F)C(F)(F)C(F)(F)C(F)(F)C(F)(F)C(F)(F)C(F)(F)C(F)(F)F (centres unmarked) [Example F9, C7 F15 CF(CF3)CON[C3 H6 N^+ (CH3)2 H]2 2[-OOCCH3]] | 22.0 | 1000 | – | – | –
